Active and inactive are the calls of the source. The calls are words filed in the database; no cut-off is given here.
What was measured:
Trypanosoma cruzi [1] = assay: Antiparasitic activity against epimastigote form of Trypanosoma cruzi Y(TcII) assessed as inhibition of parasite growth incubated for 96 hrs followed by incubation with resazurin for 4 to 6 hrs by resazurin dye based fluorescence analysis; format: functional, organism-based
Trypanosoma cruzi [2] = assay: Antiparasitic activity against epimastigote form of Trypanosoma cruzi SOL(TcV) assessed as inhibition of parasite growth incubated for 96 hrs followed by incubation in dark with resazurin for 4 to 6 hrs by resazurin dye based fluorescence analysis; format: functional, organism-based
Trypanosoma cruzi [3] = assay: Antiparasitic activity against epimastigote form of Trypanosoma cruzi BM Lopez (TcIa) assessed as inhibition of parasite growth incubated for 96 hrs followed by incubation with resazurin for 4 to 6 hrs by resazurin dye based fluorescence analysis; format: functional, organism-based
Trypanosoma cruzi [4] = assay: Antiparasitic activity against epimastigote form of Trypanosoma cruzi DA (TcI) assessed as inhibition of parasite growth incubated for 96 hrs followed by incubation with resazurin for 4 to 6 hrs by resazurin dye based fluorescence analysis; format: functional, organism-based
[5] = Cytotoxicity against human MRC5 cells; format: toxicity, cell-based
[6] = Selectivity index, ratio of IC50 for cytotoxicity against human MRC5 cells to IC50 for antiparasitic activity against epimastigote form of Trypanosoma cruzi Y (TcII); format: toxicity, cell-based; conditions: read-out: Ratio IC50
[7] = Selectivity index, ratio of IC50 for cytotoxicity against human MRC5 cells to IC50 for antiparasitic activity against epimastigote form of Trypanosoma cruzi SOL (TcV); format: toxicity, cell-based; conditions: read-out: Ratio IC50
[8] = Selectivity index, ratio of IC50 for cytotoxicity against human MRC5 cells to IC50 for antiparasitic activity against epimastigote form of Trypanosoma cruzi BM Lopez (TcIa); format: toxicity, cell-based; conditions: read-out: Ratio IC50
[9] = Selectivity index, ratio of IC50 for cytotoxicity against human MRC5 cells to IC50 for antiparasitic activity against epimastigote form of Trypanosoma cruzi DA (TcI); format: toxicity, cell-based; conditions: read-out: Ratio IC50
Trypanosoma cruzi [10] = assay: Antiparasitic activity against trypomastigote form of Trypanosoma cruzi SOL (MHOM/ES/2008/SOL; DTU V) assessed as inhibition of parasite growth incubated for 96 hrs followed by incubation in dark with resazurin for 4 to 6 hrs by resazurin dye based fluorescence analysis; format: functional, organism-based
[11] = Selectivity index, ratio of IC50 for cytotoxicity against human MRC5 cells to IC50 for antiparasitic activity against trypomastigote form of Trypanosoma cruzi SOL (TcV); format: toxicity, cell-based; conditions: read-out: Ratio IC50
Quadruplex DNA [12] = assay: Stabilization of Trypanosoma cruzi G-quadruplex RCr DNA (FAM-5'-GGGGACGGGAATGGGGGTGCATGAGGGG-3'-TAMRA) assessed as change in apparent melting temperature at 5 uM by FRET melting analysis; format: nucleic-acid assay
Quadruplex DNA [13] = assay: Stabilization of Trypanosoma cruzi G-quadruplex MCr DNA (FAM-5'-GTGGAGGGGGAGGGTCATGGGG-3'-TAMRA) assessed as change in apparent melting temperature at 5 uM by FRET melting analysis; format: nucleic-acid assay
Quadruplex DNA [14] = assay: Stabilization of Trypanosoma cruzi G-quadruplex TCr DNA (FAM-5'-GGGAGGGACGGATGGGCAGAAACGGG-3'-TAMRA) assessed as change in apparent melting temperature at 5 uM by FRET melting analysis; format: nucleic-acid assay
Quadruplex DNA [15] = assay: Stabilization of human telomere G-quadruplex F21T DNA (FAM-5'-GGGTTAGGGTTAGGGTTAGGG-3'-TAMRA) assessed as change in apparent melting temperature at 5 uM by FRET melting analysis; format: nucleic-acid assay
Quadruplex DNA [16] = assay: Stabilization of human proto-oncogene G-quadruplex MYC DNA (FAM-5'-TTGAGGGTGGGTAGGGTGGGTAA-3'-TAMRA) assessed as change in apparent melting temperature at 5 uM by FRET melting analysis; format: nucleic-acid assay
dsDNA [17] = assay: Binding affinity to human duplex FdxT DNA (FAM-5'-TATAGCTAT-peg-TATAGCTATA-3'-TAMRA) at 5 uM by FRET melting analysis; format: nucleic-acid assay
Quadruplex DNA [18] = assay: Stabilization of Trypanosoma cruzi G-quadruplex RCr DNA (FAM-5'-GGGGACGGGAATGGGGGTGCATGAGGGG-3'-TAMRA) at 10 uM by FRET melting analysis; format: nucleic-acid assay
Quadruplex DNA [19] = assay: Stabilization of human telomere G-quadruplex F21T DNA (FAM-5'-GGGTTAGGGTTAGGGTTAGGG-3'-TAMRA) at 5 uM in presence of 1 to 10 uM double stranded ds26 DNA by FRET melting analysis; format: nucleic-acid assay
Quadruplex DNA [20] = assay: Stabilization of Trypanosoma cruzi G-quadruplex RCr DNA (FAM-5'-GGGGACGGGAATGGGGGTGCATGAGGGG-3'-TAMRA) at 5 uM in presence of 1 to 10 uM double stranded ds26 DNA by FRET melting analysis; format: nucleic-acid assay
Quadruplex DNA [21] = assay: Binding affinity to Trypanosoma cruzi G-quadruplex RCr DNA (FAM-5'-GGGGACGGGAATGGGGGTGCATGAGGGG-3'-TAMRA) assessed as broadening of imino proton signals with delta shift at 1 equiv. by 1H-NMR analysis; format: nucleic-acid assay
Quadruplex DNA [22] = assay: Binding affinity to Trypanosoma cruzi G-quadruplex MCr DNA (FAM-5'-GTGGAGGGGGAGGGTCATGGGG-3'-TAMRA) assessed as broadening of imino proton signals at 1 equiv. by 1H-NMR analysis; format: nucleic-acid assay
Quadruplex DNA [23] = assay: Binding affinity to Trypanosoma cruzi G-quadruplex TCr DNA (FAM-5'-GGGAGGGACGGATGGGCAGAAACGGG-3'-TAMRA) assessed as broadening of imino proton signals at 1 equiv. by 1H-NMR analysis; format: nucleic-acid assay
Quadruplex DNA [24] = assay: Binding affinity to Trypanosoma cruzi G-quadruplex RCr DNA (FAM-5'-GGGGACGGGAATGGGGGTGCATGAGGGG-3'-TAMRA) assessed as increase in melting temperature at DNA:compound concentration ratio of 1:2 by CD melting assay; format: nucleic-acid assay
Quadruplex DNA [25] = assay: Binding affinity to Trypanosoma cruzi G-quadruplex MCr DNA (FAM-5'-GTGGAGGGGGAGGGTCATGGGG-3'-TAMRA) at DNA:compound concentration ratio of 1:1 to 1:2 by CD melting assay; format: nucleic-acid assay
Quadruplex DNA [26] = assay: Binding affinity to Trypanosoma cruzi G-quadruplex RCr DNA (FAM-5'-GGGGACGGGAATGGGGGTGCATGAGGGG-3'-TAMRA) assessed as decrease in absorption with shift to higher wavelength at 25 uM by UV-Vis spectrophotometric analysis; format: nucleic-acid assay
Quadruplex DNA [27] = assay: Binding affinity to Trypanosoma cruzi G-quadruplex MCr DNA (FAM-5'-GTGGAGGGGGAGGGTCATGGGG-3'-TAMRA) assessed as decrease in absorption with shift to higher wavelength at 25 uM by UV-Vis spectrophotometric analysis; format: nucleic-acid assay
dsDNA [28] = assay: Binding affinity to double stranded ds26 DNA (unknown origin) assessed as decrease in absorbance with shift to lower wavelength at 25 uM by UV-Vis spectrophotometric analysis; format: nucleic-acid assay
[29] = Drug uptake in epimastigote form of Trypanosoma cruzi BM Lopez at 20 uM measured after 2 hrs by fluorescence microscopy; format: ADME
[30] = Drug uptake in epimastigote form of Trypanosoma cruzi BM Lopez assessed as localization in kinetoplast and nucleus at 20 uM measured after 4 hrs by fluorescence microscopy; format: ADME
[31] = Drug uptake in epimastigote form of Trypanosoma cruzi BM Lopez assessed as localization in kinetoplast and nucleus at 20 uM measured after 24 hrs by fluorescence microscopy; format: ADME
Trypanosoma cruzi [32] = assay: Potency index, ratio of Benznidazole IC50 to test compound IC50 for antiparasitic activity against trypomastigote form of Trypanosoma cruzi SOL (MHOM/ES/2008/SOL; DTU V) by resazurin dye based fluorescence analysis; format: functional

`Cc1sc(-c2cccc3cc[n+](C)cc23)cc1C1=C(c2cc(-c3cccc4cc[n+](C)cc34)sc2C)CCC1.[I-].[I-]` gave an IC50 (Trypanosoma cruzi [1]) of 19.5 µM, an IC50 (Trypanosoma cruzi [2]) of 20.8 µM and an IC50 (Trypanosoma cruzi [3]) of 30.1 µM. The IC50 (Trypanosoma cruzi [4]) was 21.2 µM, the IC50 [5] was 61.4 µM and the selectivity ratio [6] was 3.1. For the same compound, the selectivity ratio [7] was 2.9, the selectivity ratio [8] was 2 and the selectivity ratio [9] was 2.9. The IC50 (Trypanosoma cruzi [10]) was 1.5 µM, the selectivity ratio [11] was 40.9 and the ΔTm (Quadruplex DNA [12]) was 17 °C. It also gave a ΔTm (Quadruplex DNA [13]) of 14 °C, a ΔTm (Quadruplex DNA [14]) of 17 °C and a ΔTm (Quadruplex DNA [15]) of 17 °C. For the same compound, the ΔTm (Quadruplex DNA [16]) was 17 °C, the Activity (dsDNA [17]) was “inactive” and the Activity (Quadruplex DNA [18]) was “Active”. For the same compound, the Activity (Quadruplex DNA [19]) was “Active”, the Activity (Quadruplex DNA [20]) was “Active” and the Activity (Quadruplex DNA [21]) was “Active”. For the same compound, the Activity (Quadruplex DNA [22]) was “Active”, the Activity (Quadruplex DNA [23]) was “Active” and the ΔTm (Quadruplex DNA [24]) was 6.98 °C. For the same compound, the Activity (Quadruplex DNA [25]) was “Active”, the Activity (Quadruplex DNA [26]) was “Active” and the Activity (Quadruplex DNA [27]) was “Active”. For the same compound, the Activity (dsDNA [28]) was “inactive”, the Drug uptake [29] was “Active” and the Drug uptake [30] was “Active”. The Drug uptake [31] was “Active” and the “Ratio IC50” value (Trypanosoma cruzi [32]) was 38.
